One experiment concerns the target T1, TAK1-TAB1 fusion protein (Homo sapiens, UniProt O43318).
T1 construct: purchased Carna
T1 sequence (O43318 with tags, fused parts or gaps limits assumed): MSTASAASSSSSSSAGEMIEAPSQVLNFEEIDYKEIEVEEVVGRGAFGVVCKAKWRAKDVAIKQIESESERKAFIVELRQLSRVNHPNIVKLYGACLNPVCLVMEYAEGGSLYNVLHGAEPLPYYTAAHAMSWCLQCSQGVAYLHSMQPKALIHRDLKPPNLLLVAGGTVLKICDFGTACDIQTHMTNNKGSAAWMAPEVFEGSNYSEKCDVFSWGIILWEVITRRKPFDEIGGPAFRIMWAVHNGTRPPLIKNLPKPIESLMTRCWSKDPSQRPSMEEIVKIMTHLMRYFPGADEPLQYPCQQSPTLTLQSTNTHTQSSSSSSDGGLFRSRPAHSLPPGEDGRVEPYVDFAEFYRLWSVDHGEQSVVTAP
Briefly: TAK1 biochemical assay (AlphaScreen, GST-MAP2K7 substrate). To be noted: TAK1-TAB1 fusion protein, GST-MAP2K7 substrate; read-out: mean TAK1 IC50 (Col. A). (In general: In Alpha technology, singlet oxygen from a donor bead excites a nearby acceptor bead.)

For a further experiment, the system named is pJNK in HCT-116 cells. Briefly: Phospho-JNK (Thr183/Tyr185) Meso Scale ELISA assay, TNFα-stimulated HCT-116 cells. The class given is cell-based. The following applies: Homo sapiens, read-out: mean HCT-116 pJNK ELISA IC50 (Col. B). The protocol: Detailed below are ELISA assays for pJNK and p38, and a TAK1 biochemical assay. […] In Table 1, Col.
Phospho-JNK (Thr183/Tyr185) Meso Scale ELISA Assay
• 1. Plate HCT-116 cells at 25,000 per well in 100 uL in 96 well clear dishes in normal growth medium. Day 2: • 1. Aspirate medium and replace with 90 μl reduced serum growth medium (1% FCS), incubate for 2 hours at 37° C. • 2. Make drugs at 10× in reduced serum medium and add 10 uL per well. • 3. Incubate at 37° C. for 4 hrs. • 4. Bring capture plates to room temperature. • 5. Block with 150 μl Blocking Solution (provided with kit) (600 mg Blocker A into 20 mL 1× Wash Buffer per plate) at room temperature with shaking. • 6. Wash plates 4× with 200 μl 1× wash buffer (10× provided with kit) before transferring lysates. • 7. Dilute TNFα to […] in reduced serum medium (this makes a 10× working stock). • 8. Add 10 μl TNFα to all wells except negative control wells, final concentration is 10 ng/mL. • 9. Incubate at 37° C. for 10 minutes. • 10. Remove medium by flicking into sink • 11. Wash cells with 100 uL ice cold PBS. • 12. Remove PBS by flicking into sink and patting on paper towels. • 13. Lyse cells in 50 μl ice cold 1× Complete Lysis Buffer plus Phosphatase and Protease inhibitors (all provided with kit) (10 mL Tris Lysis Buffer+200 μl Protease inhibitor solution+100 μl Phosphatase inhibitor I+100 μl Phosphatase inhibitor II). • 14. Incubate with shaking at 4° C. for 30 minutes. • 15. Transfer 45 μl to capture plate, cover with adhesive cover, and incubate at 4° C. over night with shaking. • Day 3: • 1. Wash plates 4× with 200 μl 1× wash buffer (10× provided with kit). • 2. […] Incubate at room temperature with shaking for 1 hour. • 4. Wash 4× with 200 μl 1× Wash Buffer. • 5. […] Read on Sector Imager. Phospho-p38 Meso Scale ELISA Assay Day 1: • 1. Plate HCT-116 cells at 25,000 per well in 100 uL in 96 well clear dishes in normal growth medium. zday 2: • 1. Aspirate medium and replace with 90 μl reduced serum growth medium (1% FCS), incubate for 2 hours at 37° C. • 2. Make drugs at 10× in reduced serum medium and add 10 uL per well. • 3. Incubate at 37° C. for 4 hrs. • 4. Bring capture plates to room temperature. • 5. Block with 150 μl Blocking Solution (provided with kit) (600 mg Blocker A into 20 mL 1× Wash Buffer per plate) at room temperature with shaking. • 6. Wash plates 4× with 200 μl 1× wash buffer (10× provided with kit) before transferring lysates. • 7. Dilute TNFα to […] in reduced serum medium (this makes a 10× working stock). • 8. Add 10 μl TNFα to all wells except negative control wells, final concentration is 10 ng/mL. • 9. Incubate at 37° C. for 10 minutes. • 10. Remove medium by flicking into sink • 11. Wash cells with 100 uL ice cold PBS. • 12. Remove PBS by flicking into sink and patting on paper towels. • 13. Lyse cells in 50 μl ice cold 1× Complete Lysis Buffer plus phosphatase and protease inhibitors (all provided with kit) (10 mL Tris Lysis Buffer+200 μl Protease inhibitor solution+100 μl Phosphatase inhibitor I+100 μl Phosphatase inhibitor II). • 14. Incubate with shaking at 4° C. for 30 minutes. • 15. Dilute lysates before transferring to capture plate with 100 μl Complete p38 Lysate • Dilution Buffer (provided with kit) (10 mL of Diluent 20±200 μl Protease inhibitor solution+100 μl Phosphatase inhibitor I+100 μl Phosphatase inhibitor II). • 16. Transfer 50 μl of diluted lysates to capture plate, cover with adhesive cover, and incubate at 4° C. over night with shaking. Day 3: • 1. Wash plates 4× with 200 μl 1× wash buffer (10× provided with kit). • 2. […] Incubate at room temperature with shaking for 1 hour. • 4. Wash 4× with 200 μl 1× Wash Buffer. • 5. […] Read on Sector Imager. TAK1 Biochemical Assay
A general note: An ELISA detects its analyte on a solid surface through an enzyme-linked reagent.

pIC50: −log10 of the molar value. Where a name gives a salt, the structure may show the parent alone.

A word on the pIC50: it is −log10 of the IC50, conventionally taken in molar units. As for `Nc1ncc(-c2cnn([C@H]3CC[C@H](O)CC3)c2)c2cc(-c3cccc4ncsc34)oc12` [Example 231, trans-4-{4-[7-amino-2-(1,3-benzothiazol-7-yl)furo[2,3-c]pyridin-4-yl]-1H-pyrazol-1-yl}cyclohexanol diformate salt], the pIC50 on TAK1-TAB1 fusion protein and with pJNK in HCT-116 cells was over 7.00 in each case.

`CC(=O)N1CCC(n2cc(-c3cnc(N)c4oc(-c5nn(C)c6cnccc56)cc34)cn2)CC1` [Example 363, 1-(4-{4-[7-amino-2-(1-methyl-1H-pyrazolo[3,4-c]pyridin-3-yl)furo[2,3-c]pyridin-4-yl]-1H-pyrazol-1-yl}piperidin-1-yl)ethanone trifluoroacetic acid salt]: the figures for the pIC50 at TAK1-TAB1 fusion protein and with pJNK in HCT-116 cells were over 7.00 and 6.00 to 7.00, respectively.

With `CC(=O)N1CCC(n2cc(-c3cnc(N)c4oc(-c5csc6cnc(F)cc56)cc34)cn2)CC1` [Example 248, 1-(4-{4-[7-amino-2-(5-fluorothieno[2,3-c]pyridin-3-yl)furo[2,3-c]pyridin-4-yl]-1H-pyrazol-1-yl}piperidin-1-yl)ethanone bis(trifluoroacetate)], the negative-log IC50 (pIC50) at TAK1-TAB1 fusion protein and in the experiment on pJNK in HCT-116 cells was over 7.00 each time.

For the molecule `[2H]C([2H])([2H])Nc1ncc(-c2cnn([C@H]3CC[C@H](O)CC3)c2)c2cc(-c3cccc4nnsc34)oc12` [Example 361, trans-4-(4-{2-(1,2,3-benzothiadiazol-7-yl)-7-[(^2H3)methylamino]furo[2,3-c]pyridin-4-yl}-1H-pyrazol-1-yl)cyclohexanol], the pIC50 on TAK1-TAB1 fusion protein and with pJNK in HCT-116 cells was over 7.00 throughout.

As for `Nc1ncc(-c2cnn([C@@H]3C[C@H]4CC[C@@H](C3)N4)c2)c2cc(-c3cccc4cnsc34)oc12` [Example 321, 4-{1-[(3-exo)-8-azabicyclo[3.2.1]oct-3-yl]-1H-pyrazol-4-yl}-2-(1,2-benzisothiazol-7-yl)furo[2,3-c]pyridin-7-amine], the pIC50 on TAK1-TAB1 fusion protein was over 7.00; with pJNK in HCT-116 cells, 6.00 to 7.00.

Consider `Nc1ncc(-c2cnn([C@H]3CC[C@H](O)CC3)c2)c2cc(-c3c(F)ccc4nnsc34)oc12` [Example 272, trans-4-{4-[7-amino-2-(6-fluoro-1,2,3-benzothiadiazol-7-yl)furo[2,3-c]pyridin-4-yl]-1H-pyrazol-1-yl}cyclohexanol diformate salt], for which the negative logarithm of the IC50 (pIC50) on TAK1-TAB1 fusion protein and in the experiment on pJNK in HCT-116 cells was over 7.00 in each case.

On to `CC(=O)N1CCC(n2cc(-c3cnc(N)c4oc(-c5cn(C)c6cnccc56)cc34)cn2)CC1` [Example 266, 1-(4-{4-[7-amino-2-(1-methyl-1H-pyrrolo[2,3-c]pyridin-3-yl)-furo[2,3-c]pyridin-4-yl]-pyrazol-1-yl}-piperidin-1-yl)-ethanone], for which the pIC50 at TAK1-TAB1 fusion protein was over 7.00; in the experiment with pJNK in HCT-116 cells, 6.00 to 7.00.

As to `Nc1ncc(-c2cnn([C@H]3CC[C@H](O)CC3)c2)c2cc(-c3csc4cnncc34)oc12` [Example 268, trans-4-{4-[7-amino-2-(thieno[2,3-d]pyridazin-3-yl)furo[2,3-c]-pyridin-4-yl]-1H-pyrazol-1-yl}cyclohexanol bistrifluoroacetate], the negative logarithm of the IC50 (pIC50) on TAK1-TAB1 fusion protein and with pJNK in HCT-116 cells was over 7.00 throughout.

On to `CC(C)(C)OC(=O)N1[C@@H]2CC[C@H]1C[C@H](n1cc(-c3cnc(N)c4oc(-c5cccc6cnsc56)cc34)cn1)C2` [Example 301, tert-butyl (3-exo)-3-{4-[7-amino-2-(1,2-benzisothiazol-7-yl)furo[2,3-c]pyridin-4-yl]-1H-pyrazol-1-yl}-8-azabicyclo[3.2.1]octane-8-carboxylate], for which the pIC50 at TAK1-TAB1 fusion protein and in the experiment on pJNK in HCT-116 cells was 6.00 to 7.00 each time.

Turning to `Nc1ncc(-c2cnn([C@H]3CC[C@H](O)CC3)c2)c2c(Cl)c(-c3cccc4ncsc34)oc12` [Example 288, trans-4-{4-[7-amino-2-(1,3-benzothiazol-7-yl)-3-chlorofuro[2,3-c]pyridin-4-yl]-1H-pyrazol-1-yl}cyclohexanol], the pIC50 on TAK1-TAB1 fusion protein and in the experiment on pJNK in HCT-116 cells was over 7.00 throughout.

Take `CNc1ncc(-c2cnn([C@H]3CC[C@H](O)CC3)c2)c2cc(-c3cccc4cnsc34)oc12` [Example 282, trans-4-{4-[2-(1,2-benzothiazol-7-yl)-7-(methylamino)furo[2,3-c]pyridin-4-yl]-1H-pyrazol-1-yl}cyclohexanol]: the negative-log IC50 (pIC50) on TAK1-TAB1 fusion protein and in the experiment with pJNK in HCT-116 cells was 6.00 to 7.00 each time.

Consider `CC(=O)N1CCC(n2cc(-c3cnc(N)c4oc(-c5cccc6cnncc56)cc34)cn2)CC1` [Example 367, 1-(4-{4-[7-amino-2-(phthalazin-5-yl)furo[2,3-c]pyridin-4-yl]-1H-pyrazol-1-yl}piperidin-1-yl)ethanone], for which the pIC50 on TAK1-TAB1 fusion protein and in the experiment with pJNK in HCT-116 cells was 6.00 to 7.00 in each case.

As for `CC(=O)N1CCC(n2cc(-c3cnc(N)c4oc(-c5c6ccncc6nn5C)cc34)cn2)CC1` [Example 364, 1-(4-{4-[7-amino-2-(2-methyl-2H-pyrazolo[3,4-c]pyridin-3-yl)furo[2,3-c]pyridin-4-yl]-1H-pyrazol-1-yl}piperidin-1-yl)ethanone trifluoroacetic Acid Salt], the negative logarithm of the IC50 (pIC50) on TAK1-TAB1 fusion protein was 6.00 to 7.00; in the experiment with pJNK in HCT-116 cells it was 5.00 to 6.00.

Consider `Nc1ncc(-c2cnn([C@H]3CC[C@H](O)CC3)c2)c2cc(-c3csc4cnc(O)cc34)oc12` [Example 360, 3-{7-Amino-4-[1-(trans-4-hydroxycyclohexyl)-1H-pyrazol-4-yl]furo[2,3-c]pyridin-2-yl}thieno[2,3-c]pyridin-5-ol], for which the pIC50 is 6.00 to 7.00 at TAK1-TAB1 fusion protein and 5.00 to 6.00 in the experiment on pJNK in HCT-116 cells.

On to `Cc1c(-c2cccc3nnsc23)oc2c(N)ncc(-c3cnn([C@H]4CC[C@H](O)CC4)c3)c12` [Example 362, trans-4-{4-[7-amino-2-(1,2,3-benzothiadiazol-7-yl)-3-methylfuro[2,3-c]pyridin-4-yl]-1H-pyrazol-1-yl}cyclohexanol], for which the pIC50 on TAK1-TAB1 fusion protein and in the experiment on pJNK in HCT-116 cells was over 7.00 each time.

As for `CC(=O)N1CCC(n2cc(-c3cnc(N)c4oc(-c5c(F)ccc6cnsc56)cc34)cn2)CC1` [Example 239, 1-(4-{4-[7-amino-2-(6-fluoro-1,2-benzothiazol-7-yl)furo[2,3-c]pyridin-4-yl]-1H-pyrazol-1-yl}piperidin-1-yl)ethanone diformate salt], the pIC50 on TAK1-TAB1 fusion protein and with pJNK in HCT-116 cells was 6.00 to 7.00 each time.

Regarding `CCNc1nc2cccc(-c3cc4c(-c5cnn([C@H]6CC[C@H](O)CC6)c5)cnc(N)c4o3)c2s1` [Example 355, trans-4-(4-{7-amino-2-[2-(ethylamino)-1,3-benzothiazol-7-yl]furo[2,3-c]pyridin-4-yl}-1H-pyrazol-1-yl)cyclohexanol Trifluoroacetate (Salt)], the negative logarithm of the IC50 (pIC50) on TAK1-TAB1 fusion protein and with pJNK in HCT-116 cells was over 7.00 each time.

The values above are taken from US8378104B2 (OSI Pharmaceuticals, LLC, priority 2010, dated 2013).
